This note sets out measurements from paper PMC10045534, “Preparation and Evaluation of 6-Gingerol Derivatives as Novel Antioxidants and Antiplatelet Agents” (Antioxidants, 2023).

This data set can be described thus: PAMPA-BBB permeability. It counts as in vitro ADME. Particulars: after 4 h at 37 °C in PBS, pH 7.4, mean ± SEM, n = 3; for Papp at 4 h, 500 μM: PAMPA, read-out: PAMPA-BBB Pe. The procedure: Preparative purifications over RP-HPLC were performed on a Kinetex XB C18 (5 μm, 250 × 21.2 mm) column on an Armen Spot Prep II integrated HPLC purification system (Gilson, Middleton, WI, USA) with dual-wavelength detection, with an adequately chosen combination of acetonitrile–water, and a flow rate of 15 mL/min. The purity of the compounds obtained was determined by RP-HPLC analyses on a system of two Jasco PU 2080 pumps, a Jasco AS-2055 Plus intelligent sampler connected to a JASCO LC-Net II/ADC equipped with a Jasco MD-2010 Plus PDA detector (Jasco International Co. Ltd., Hachioji, Tokyo, Japan) utilizing a Kinetex C-18 (5 μm, 250 × 4.6 mm) column (Phenomenex Inc., Torrance, CA, USA) and applying a gradient of 30%–100% aqueous AcN in 30 min followed by 100% ACN for 10 min with a flow rate of 1 mL/min. Analysis of samples from the PAMPA and kinetic solubility assays was performed the same way, by using 3-point calibrations and integrating each compound at its UV absorption maximum.
Blood–brain barrier-specific (BBB) permeability measurements were carried out us- ing the PAMPA-BBB model. […] The solutions were sonicated for 10 min at room temperature. To prepare the artificial BBB-specific membrane, 16 mg BPLE were dissolved in 600 μL of n-dodecane:n-hexane (25:75). Each well of the donor plate (MultiscreenTM-IP, MAIPNTR10, pore size […], Merck kGaA) was coated with 5 μL lipid solution and fitted into the acceptor plate containing 300 μL PBS (pH 7.4) with 5% DMSO, and 150–150 μL of the PBS solutions (made from the DMSO stock solutions) were placed on the donor plate’s artificial membrane. The sandwich plate system was covered with a tissue of wet paper and a plastic lid to avoid evaporation of the solvent, and it was incubated at 37 °C for 4 h. In the end, the initial 500 μM solutions ( cD0 ), the donor ( cDt ) and acceptor solution ( cAt ) were analysed by HPLC-UV (see Section 2.1). BBB permeability was calculated using the effective permeability equation used for iso-pH conditions described by A. Avdeef as follows. (2) Pe=−2.303/A·t−τss·1/1+rv·lg−rv+1+rv/1−MR·cDt/cD0 (3) MR=1−cDt/cD0−VAcAt/VDcD0 where A is the filter area (0.3 cm^2), VD and VA are the volumes in the donor (0.15 cm^3) and acceptor phase (0.3 cm^3), t is the incubation time (s), τss is the time to reach steady state (s), cDt is the concentration of the compound in the donor phase at time point t (mol/cm^3), cD0 is the concentration of the compound in the donor phase at time point zero (mol/cm^3), cAt is the concentration of the compound in the acceptor phase at time point t (mol/cm^3), rv is the aqueous compartment volume ratio (VD/VA).

For the compound `CCCCC[C@H](O)CC(=O)CCc1ccc(O)c(OC)c1` [Compound 1, (S)-5-hydroxy-1-(4-hydroxy-3-methoxyphenyl)decan-3-one], the Papp at 4 h, 500 μM stood at 3.52 ± 0.24 ×10⁻⁶ cm/s; the “PAMPA-BBB MR (%)” value was 23.8 ± 1.5%; the “PAMPA-BBB Pe” value was ≥ 25 ·10^−7 cm/s.

With `CCCCC/C=C/C(=O)CCc1ccc(O)c(OC)c1` [Compound 2, 6-shogaol], the Papp at 4 h, 500 μM turned out to be 3.17 ± 0.36 ×10⁻⁶ cm/s; the “PAMPA-BBB MR (%)” value is given as 20.9 ± 3.9%; the “PAMPA-BBB Pe” value is recorded as ≥ 25 ·10^−7 cm/s.

Take `CCCCCCCC(=O)CCc1ccc(O)c(OC)c1` [Compound 3, 4,5-dihydro-6-shogaol]: the “PAMPA-BBB MR (%)” value was “-/11.0 ± 0.7%”.

With `CCCCCCCC(CCc1ccc(O)c(OC)c1)=NO` [Compound 4, 1-(4-hydroxy-3-methoxyphenyl)decan-3-one oxime], the “PAMPA-BBB MR (%)” value is reported as “-/4.0 ± 11.1%”.

Take `CCCCC[C@H](O)C[C@H](O)CCc1ccc(O)c(OC)c1` [Compound 5, (3R,5S)-1-(4-hydroxy-3-methoxyphenyl)decane-3,5-diol]: the Papp at 4 h, 500 μM worked out at 3.39 ×10⁻⁶ cm/s; the “PAMPA-BBB MR (%)” value is recorded as 9.1 ± 7.6%; the “PAMPA-BBB Pe” value was ≥ 25 ·10^−7 cm/s.

Regarding `CCCCC[C@H](O)C[C@@H](O)CCc1ccc(O)c(OC)c1` [Compound 6, (3S,5S)-1-(4-hydroxy-3-methoxyphenyl)decane-3,5-diol], the Papp at 4 h, 500 μM was 2.74 ± 0.16 ×10⁻⁶ cm/s; the “PAMPA-BBB MR (%)” value stood at 18.5 ± 2.7%; the “PAMPA-BBB Pe” value was ≥ 25 ·10^−7 cm/s.

Regarding `CCCCCc1cc(CCc2ccc(O)c(OC)c2)[nH]n1` [Compound 14, 2-methoxy-4-(2-(3-pentyl-1H-pyrazol-5-yl)ethyl)phenol], the Papp at 4 h, 500 μM was 1.58 ± 0.08 ×10⁻⁶ cm/s and the “PAMPA-BBB MR (%)” value came to 33.6 ± 4.6%.

Regarding `CCCCCc1cc(CCc2ccc(O)cc2)[nH]n1` [Compound 15, 4-(2-(3-pentyl-1H-pyrazol-5-yl)ethyl)phenol], the Papp at 4 h, 500 μM worked out at 2.07 ± 0.43 ×10⁻⁶ cm/s and the “PAMPA-BBB MR (%)” value was determined as 3.1 ± 5.7%.

As to `CCCCCCCNC(=O)CCc1ccc(O)c(OC)c1` [Compound 22], the Papp at 4 h, 500 μM is 3.22 ± 0.34 ×10⁻⁶ cm/s; the “PAMPA-BBB MR (%)” value is 12.1 ± 5.2%; the “PAMPA-BBB Pe” value is listed as ≥ 25 ·10^−7 cm/s.
